From patent publication EP2253629A1, “Polymorphs of racemic sunitinib malate, compositions containing them and preparation thereof” (Teva Pharmaceutical Industries Ltd., priority 2007, dated 2009)

Assay: solubility in water
Type: physicochemical

solubility: < 1000 µg/mL
SMILES: CCN(CC)CCNC(=O)c1c(C)[nH]c(/C=C2\C(=O)Nc3ccc(F)cc32)c1C [sunitinib base form VIII, N-[2-(diethylamino)ethyl]-5-[(Z)-(5-fluoro-1,2-dihydro-2-oxo-3H-indol-3-ylidine)methyl]-2,4-dimethyl-1 H-pyrrole-3-carboxamide]
